Consider 14 molecules from ChEMBL document CHEMBL1770073, “Synthesis of cinnamoyl ketoamides as hybrid structures of antioxidants and calpain inhibitors” (Bioorg Med Chem Lett, 2011).

Experiment [1] in a line: Antioxidant activity assessed as xanthine-xanthine oxidase generated superoxide anion scavenging after 20 mins. The experiment is classed as functional.
The next experiment deals with Liver. The experiment is described as follows: Antioxidant activity in rat liver homogenates assessed as inhibition of lipid peroxidation by measuring formation of thiobarbituric acid-reactive substance after 30 mins. Format: functional, tissue-based. Particulars: 0.5 h.
The test system of experiment [2] is Radical scavenging activity. The experiment is described as follows: Antioxidant activity assessed as DPPH free radical scavenging activity after 30 mins. Format: functional.
The target of experiment [3] is T1, Calpain-1 catalytic subunit (Homo sapiens, UniProt P07384).
T1 sequence (P07384 whole entry): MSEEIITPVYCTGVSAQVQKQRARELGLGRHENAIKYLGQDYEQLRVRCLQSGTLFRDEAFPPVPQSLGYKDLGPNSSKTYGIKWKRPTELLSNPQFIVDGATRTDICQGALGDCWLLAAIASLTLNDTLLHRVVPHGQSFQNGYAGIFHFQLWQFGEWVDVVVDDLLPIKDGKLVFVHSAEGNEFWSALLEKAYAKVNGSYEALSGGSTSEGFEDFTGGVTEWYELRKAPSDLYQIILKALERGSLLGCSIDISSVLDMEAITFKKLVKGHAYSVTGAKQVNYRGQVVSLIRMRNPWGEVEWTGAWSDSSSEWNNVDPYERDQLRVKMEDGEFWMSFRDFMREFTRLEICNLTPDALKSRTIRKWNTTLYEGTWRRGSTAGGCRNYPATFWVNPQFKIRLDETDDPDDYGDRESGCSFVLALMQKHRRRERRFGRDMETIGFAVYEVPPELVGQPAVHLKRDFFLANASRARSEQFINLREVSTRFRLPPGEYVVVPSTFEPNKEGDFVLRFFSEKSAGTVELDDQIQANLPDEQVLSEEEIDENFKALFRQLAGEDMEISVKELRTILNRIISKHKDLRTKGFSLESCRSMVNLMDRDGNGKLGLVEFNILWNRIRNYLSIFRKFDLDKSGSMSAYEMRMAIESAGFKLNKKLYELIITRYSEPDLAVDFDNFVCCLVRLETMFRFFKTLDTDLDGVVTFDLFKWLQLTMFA
The experiment can be described thus: Inhibition of human erythrocytes mu-calpain using Suc-Leu-Tyr-AMC fluorogenic substrate after 30 mins by spectrofluorimetry.

Structures are written as SMILES.

For `CCCC/C(=C\c1ccc(O)c(O)c1)C(=O)N[C@@H](Cc1ccccc1)C(=O)C(=O)NCCc1ccc(OC)cc1` (stereo in doubt), the IC50 in experiment [1] amounted to 41.4 µM; in the experiment on Liver, 5.88 µM; in experiment [2] it was 38.9 µM; in experiment [3] it was 0.5 µM.

Turning to `CC/C(=C\c1ccc(O)c(O)c1)C(=O)N[C@@H](Cc1ccccc1)C(=O)C(=O)NCc1ccccc1` (stereo in doubt), the IC50 in experiment [1] stood at 15.5 µM; in the experiment on Liver, 6.09 µM; in experiment [2], 45.5 µM; in experiment [3], 0.61 µM.

As to `O=C1O[C@H]([C@@H](O)CO)C(O)=C1O` [ASCORBIC ACID], the half-maximal inhibitory concentration (IC50) was over 100 µM in experiment [1], over 100 µM in the experiment on Liver and 30.8 µM in experiment [2].

Regarding `CCCC/C(=C\c1ccc(O)c(O)c1)C(=O)N[C@@H](Cc1ccccc1)C(=O)C(=O)NCc1ccccc1` (stereo in doubt), the IC50 in experiment [1] stood at 30.9 µM; in the experiment with Liver, 7.34 µM; in experiment [2] it was 36.7 µM; in experiment [3] it was 0.67 µM.

On to `COc1ccc(OC)c(C(=O)CCC(=O)N[C@@H](Cc2ccccc2)C(=O)C(N)=O)c1`, for which the IC50 (in experiment [1]; in the experiment with Liver; in experiment [2]) was over 100 µM in each case.

As for `Cc1c(C(=O)N[C@@H](Cc2ccccc2)C(=O)C(N)=O)oc2ccccc2c1=O`, the half-inhibitory concentration (IC50) in experiment [1] is over 100 µM; in the experiment with Liver it was over 100 µM; in experiment [2], over 100 µM; in experiment [3] it was 0.07 µM.

Consider `CC/C(=C\c1ccc(O)c(O)c1)C(=O)N[C@@H](Cc1ccccc1)C(=O)C(=O)NCCc1ccc(OC)cc1` (stereo in doubt), for which the IC50 turned out to be 29.2 µM in experiment [1], 6.4 µM with Liver, 46.1 µM in experiment [2] and 0.46 µM in experiment [3].

Take `CCCC/C(=C\c1ccc(O)c(OC)c1)C(=O)N[C@@H](Cc1ccccc1)C(=O)C(=O)NCCc1ccc(OC)cc1` (stereo in doubt): the IC50 in experiment [1] was over 100 µM; in the experiment on Liver, 36.1 µM; in experiment [2], over 100 µM; in experiment [3], 0.63 µM.

Turning to `CCC/C(=C\c1ccc(O)c(O)c1)C(=O)N[C@@H](Cc1ccccc1)C(=O)C(=O)NCCc1ccc(OC)cc1` (stereo in doubt), the IC50 in experiment [1] worked out at 38 µM; in the experiment with Liver, 5.71 µM; in experiment [2] it was 48.6 µM; in experiment [3] it was 0.13 µM.

Take `CC(C)C/C(=C\c1ccc(O)c(O)c1)C(=O)N[C@@H](Cc1ccccc1)C(=O)C(=O)NCc1ccccc1` (stereo in doubt): the IC50 came to 41.7 µM in experiment [1], 6.06 µM with Liver, 44.6 µM in experiment [2] and 0.32 µM in experiment [3].

Take `O=C(/C=C/c1ccc(O)c(O)c1)N[C@@H](Cc1ccccc1)C(=O)C(=O)NCc1ccccc1`: the IC50 in experiment [1] was determined as 31.2 µM; in the experiment with Liver, 7.53 µM; in experiment [2], 40.4 µM; in experiment [3], 6.07 µM.

On to `Cc1c(C)c2c(c(C)c1O)CCC(C)(C(=O)O)O2` (stereo unspecified) [TROLOX], for which the IC50 with Liver amounted to 71.4 µM.

As to `CCC/C(=C\c1ccc(O)c(O)c1)C(=O)N[C@@H](Cc1ccccc1)C(=O)C(=O)NCc1ccccc1` (stereo in doubt), the IC50 in experiment [1] worked out at 27.1 µM; with Liver, 6.15 µM; in experiment [2] it was 42.2 µM; in experiment [3], 0.36 µM.

With `CCCC/C(=C\c1ccc(OC)c(OC)c1)C(=O)N[C@@H](Cc1ccccc1)C(=O)C(=O)NCCc1ccc(OC)cc1` (stereo in doubt), the IC50 in experiment [1] is over 100 µM; with Liver, over 100 µM; in experiment [2] it was over 100 µM; in experiment [3], 1.38 µM.
